13 compounds from patent US20250186541A1, “DLL3 TARGETING PEPTIDES AND CONSTRUCTS THEREOF” (MARIANA ONCOLOGY INC., priority 2023, published 2025) can be followed below.

The experiment concerns the target T1, human DLL3 (Homo sapiens, UniProt Q9NYJ7).
T1 construct: biotin (biotinylated)
T1 sequence (Q9NYJ7 27-618): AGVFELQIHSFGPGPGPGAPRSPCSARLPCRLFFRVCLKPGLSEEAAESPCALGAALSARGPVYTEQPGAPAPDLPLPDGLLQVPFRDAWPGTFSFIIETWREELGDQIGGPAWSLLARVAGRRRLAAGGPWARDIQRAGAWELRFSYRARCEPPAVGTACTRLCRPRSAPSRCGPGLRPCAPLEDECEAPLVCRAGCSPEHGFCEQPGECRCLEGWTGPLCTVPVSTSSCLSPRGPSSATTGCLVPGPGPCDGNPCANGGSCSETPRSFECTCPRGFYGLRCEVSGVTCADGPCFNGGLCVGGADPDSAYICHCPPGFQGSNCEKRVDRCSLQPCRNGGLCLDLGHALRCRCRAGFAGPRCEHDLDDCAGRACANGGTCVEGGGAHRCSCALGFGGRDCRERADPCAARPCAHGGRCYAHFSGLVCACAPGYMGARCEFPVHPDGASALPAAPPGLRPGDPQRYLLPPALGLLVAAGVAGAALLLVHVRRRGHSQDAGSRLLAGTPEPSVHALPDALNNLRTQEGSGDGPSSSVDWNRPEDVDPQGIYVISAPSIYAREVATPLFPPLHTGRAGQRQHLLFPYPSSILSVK
Kind of experiment: Affinity determination by Surface Plasmon Resonance (SPR), Biacore, 1:1 binding model. The conditions noted are these: biotinylated human DLL3 on streptavidin chip, 25° C.; NB = nonbinding. The protocol: Example 3. Binding Affinity of Targeting Moieties Polypeptides to DLL3 Affinity Determination by Surface Plasmon Resonance (SPR)
SPR studies were performed on the compounds disclosed herein using the following protocol. […] Biotinylated target ligand human DLL3 was immobilized on a streptavidin sensor chip. A reference surface was set up for nonspecific binding and refractive index changes. For analysis of the kinetics of interactions, varying concentrations of samples were injected at a flow rate of 100 μL/min using running buffer containing 20 mM phosphate buffer with 2.7 mM KCl, 137 mM NaCl, 0.05% Surfactant P20 and 2% DMSO. Sensorgram curves were fitted with 1:1 binding model, and affinity and kinetic parameters were obtained using Biacore Insight evaluation 4.0. software.
On the technique in general: SPR reads the build-up and loss of mass on a sensor chip optically.

SMILES strings stand for the structures. Numbered stars: 1 amine (or outer) side, 2 acyl side, 3 side chain; on linkers, the order of the positions; unused ones are H or OH. Bridge positions count the residues as written; N and C are the ends. Square brackets hold non-standard residues; d marks the D form. Triazole bridges read from a SMILES are 1,4-linked. Peptide text beside a SMILES is read from it. * marks the point of attachment. Ala(piperidin-4-yl) = O=C([C@H](CC1CCN([*:3])CC1)N[*:1])[*:2]; DOTA = O=C(O)CN1CCN(CC(=O)O)CCN(CC(=O)*)CCN(CC(=O)O)CC1; 1Nal = N[C@@H](Cc1cccc2ccccc12)C(=O)O; 2Nal = N[C@@H](Cc1ccc2ccccc2c1)C(=O)O; Aha = [N-]=[N+]=NCC[C@H](N)C(=O)O; tBuAla = CC(C)(C)C[C@H](N)C(=O)O; AllylGly = C=CC[C@H](N)C(=O)O; αMeP = C[C@@]1(C(=O)O)CCCN1; Pra = C#CC[C@H](N)C(=O)O

In the case of `CC(=O)N[C@H](C)C(=O)N[C@@H](CO)C(=O)N[C@@H](CC(=O)O)C(=O)N[C@H]1Cc2cn(nn2)CC[C@@H](C(=O)N2CCC[C@@]2(C)C(=O)N[C@@H](Cc2ccccc2)C(=O)N[C@@H](CC(=O)O)C(=O)N[C@H](CCCCNC(=O)CN2CCN(CC(=O)O)CCN(CC(=O)O)CCN(CC(=O)O)CC2)C(N)=O)NC(=O)[C@H](CC(N)=O)NC(=O)[C@H](Cc2ccc3ccccc3c2)NC(=O)[C@H](CCC(N)=O)NC(=O)[C@H](CC(C)(C)C)NC(=O)[C@H](Cc2cccc3ccccc23)NC1=O` [Cpd #163, Ac-(D-Ala)-S-D-[Pra(5)]-(1Nal)-(t-Bu-Ala)-Q-(2Nal)-N-[DabN3(5)]-(aMe-P)-F -D-D-Lys(DOTA)-CONH2] (Ac-[dA]SD[Pra][1Nal][tBuAla]Q[2Nal]N[Aha][αMeP]FD[dK](DOTA)-NH2; triazole 4-10), the Kd is > 300 nM. On to `CC(=O)N[C@H](C)C(=O)N[C@@H](CO)C(=O)N[C@@H](CC(=O)O)C(=O)N[C@H]1Cc2cnnn2CC[C@@H](C(=O)N2CCC[C@@]2(C)C(=O)N[C@@H](Cc2ccccc2)C(=O)N[C@@H](CC(=O)O)C(=O)N[C@H](CCCCNC(=O)CN2CCN(CC(=O)O)CCN(CC(=O)O)CCN(CC(=O)O)CC2)C(N)=O)NC(=O)[C@H](CC(N)=O)NC(=O)[C@H](Cc2ccc3ccccc3c2)NC(=O)[C@H](CCC(N)=O)NC(=O)[C@H](CC(C)(C)C)NC(=O)[C@H](Cc2cccc3ccccc23)NC1=O` [Cpd #164, Ac-(D-Ala)-S-D-[Pra(6)]-(1Nal)-(t-Bu-Ala)-Q-(2Nal)-N-[DabN3(6)]-(aMe-P)-F -D-D-Lys(DOTA)-CONH2], for which the Kd was > 30 nM.

As to `C[C@@H](NC(=O)CN1CCN(CC(=O)O)CCN(CC(=O)O)CCN(CC(=O)O)CC1)C(=O)N[C@@H](CO)C(=O)N[C@@H](CC(=O)O)C(=O)N[C@H]1C/C=C/C[C@@H](C(=O)N2CCC[C@@]2(C)C(=O)N[C@@H](Cc2ccccc2)C(=O)N[C@@H](CC(=O)O)C(N)=O)NC(=O)[C@H](CC(N)=O)NC(=O)[C@H](Cc2ccc3ccccc3c2)NC(=O)[C@H](CC2CCNCC2)NC(=O)[C@H](CC(C)(C)C)NC(=O)[C@H](Cc2cccc3ccccc23)NC1=O` [Cpd #196, DOTA-(D-Ala)-S-D-AllyG(4)-(1Nal)-(t-Bu-Ala)-[3-(4-piperidinyl)-Ala]-(2Nal)-N-AllyG(4)-(aMe-P)-F-D-CONH2] ({DOTA}-[dA]SD[AllylGly][1Nal][tBuAla][Ala(piperidin-4-yl)][2Nal]N[AllylGly][αMeP]FD-NH2; staple (E) 4-10), the Kd came out at 0.52 nM. `CC(=O)N[C@H](C)C(=O)N[C@@H](CO)C(=O)N[C@@](C)(CC(=O)O)C(=O)N[C@H]1CCCC[C@@H](C(=O)N2CCC[C@@]2(C)C(=O)N[C@@H](Cc2ccccc2)C(=O)N[C@@H](CC(=O)O)C(N)=O)NC(=O)[C@H](CC(N)=O)NC(=O)[C@H](Cc2ccc3ccccc3c2)NC(=O)[C@H](Cc2ccc(CNC(=O)CN3CCN(CC(=O)O)CCN(CC(=O)O)CCN(CC(=O)O)CC3)cc2)NC(=O)[C@H](CC(C)(C)C)NC(=O)[C@H](Cc2cccc3ccccc23)NC1=O` [Cpd #205, Ac-(D-Ala)-S-(aMe-Asp)-AllyG(4)*-(1Nal)-(t-Bu-Ala)-[PAF(DOTA)]-(2Nal)-N-AllyG(4)*-(aMe-P)-F-D-CONH2] returned a Kd of 0.082 nM. Next, `CC(=O)N[C@@H](CO)C(=O)N[C@@H](CC(=O)O)C(=O)N[C@H]1CSSC[C@@H](C(=O)N2CCC[C@H]2C(=O)N[C@@H](Cc2ccccc2)C(=O)N[C@@H](CC(=O)O)C(N)=O)NC(=O)[C@H](CC(N)=O)NC(=O)[C@H](Cc2c[nH]c3ccccc23)NC(=O)[C@H](CCC(N)=O)NC(=O)[C@H](CC(C)C)NC(=O)[C@H](Cc2c[nH]c3ccccc23)NC1=O` [compound 5, Ac-S-D-C(3)-W-L-Q-W-N-C(3)-P-F-D-CONH2] (Ac-SDCWLQWNCPFD-NH2; disulfide 3-9): > 100 nM. With `CSCC[C@H](NC(C)=O)C(=O)N[C@@H](CO)C(=O)N[C@@H](CC(=O)O)C(=O)N[C@H]1CSSC[C@@H](C(=O)N2CCC[C@H]2C(=O)N[C@@H](Cc2ccccc2)C(=O)N[C@@H](CC(=O)O)C(N)=O)NC(=O)[C@H](CC(N)=O)NC(=O)[C@H](Cc2c[nH]c3ccccc23)NC(=O)[C@H](CCC(N)=O)NC(=O)[C@H](CC(C)C)NC(=O)[C@@H](C)NC1=O` [compound 11, Ac-M-S-D-C(3)-(D-Ala)-L-Q-W-N-C(3)-P-F-D-CONH2] (Ac-MSDC[dA]LQWNCPFD-NH2; disulfide 4-10), the Kd is > 100 nM. Consider `CSCC[C@H](NC(C)=O)C(=O)N[C@@H](CO)C(=O)N[C@@H](CC(=O)O)C(=O)N[C@H]1CSSC[C@@H](C(=O)N2CCC[C@H]2C(=O)N[C@@H](Cc2ccccc2)C(=O)N[C@@H](CC(=O)O)C(N)=O)NC(=O)[C@H](CC(N)=O)NC(=O)[C@H](Cc2c[nH]c3ccccc23)NC(=O)[C@@H](C)NC(=O)[C@H](CC(C)C)NC(=O)[C@H](Cc2c[nH]c3ccccc23)NC1=O` [compound 13, Ac-M-S-D-C(3)-W-L-(D-Ala)-W-N-C(3)-P-F-D-CONH2] (Ac-MSDCWL[dA]WNCPFD-NH2; disulfide 4-10), for which the Kd is > 100 nM. As for `CSCC[C@H](NC(C)=O)C(=O)N[C@@H](CO)C(=O)N[C@@H](CC(=O)O)C(=O)N[C@H]1CSSC[C@@H](C(=O)N2CCC[C@H]2C(=O)N[C@@H](Cc2ccccc2)C(=O)N[C@@H](CC(=O)O)C(N)=O)NC(=O)[C@@H](C)NC(=O)[C@H](Cc2c[nH]c3ccccc23)NC(=O)[C@H](CCC(N)=O)NC(=O)[C@H](CC(C)C)NC(=O)[C@H](Cc2c[nH]c3ccccc23)NC1=O` [compound 15, Ac-M-S-D-C(3)-W-L-Q-W-(D-Ala)-C(3)-P-F-D-CONH2] (Ac-MSDCWLQW[dA]CPFD-NH2; disulfide 4-10), the figure is > 100 nM. Next, `CSCC[C@H](NC(C)=O)C(=O)N[C@@H](CO)C(=O)N[C@@H](CC(=O)O)C(=O)N[C@H]1CSSC[C@@H](C(=O)N[C@H](C)C(=O)N[C@@H](Cc2ccccc2)C(=O)N[C@@H](CC(=O)O)C(N)=O)NC(=O)[C@H](CC(N)=O)NC(=O)[C@H](Cc2c[nH]c3ccccc23)NC(=O)[C@H](CCC(N)=O)NC(=O)[C@H](CC(C)C)NC(=O)[C@H](Cc2c[nH]c3ccccc23)NC1=O` [compound 16, Ac-M-S-D-C(3)-W-L-Q-W-N-C(3)-(D-Ala)-F-D-CONH2] (Ac-MSDCWLQWNC[dA]FD-NH2; disulfide 4-10): > 100 nM; `CSCC[C@H](NC(C)=O)C(=O)N[C@@H](CO)C(=O)N[C@@H](CC(=O)O)C(=O)N[C@H]1CSSC[C@@H](C(=O)N2CCC[C@H]2C(=O)N[C@H](C)C(=O)N[C@@H](CC(=O)O)C(N)=O)NC(=O)[C@H](CC(N)=O)NC(=O)[C@H](Cc2c[nH]c3ccccc23)NC(=O)[C@H](CCC(N)=O)NC(=O)[C@H](CC(C)C)NC(=O)[C@H](Cc2c[nH]c3ccccc23)NC1=O` [compound 17, Ac-M-S-D-C(3)-W-L-Q-W-N-C(3)-P-(D-Ala)-D-CONH2] (Ac-MSDCWLQWNCP[dA]D-NH2; disulfide 4-10): > 100 nM; `CSCC[C@H](NC(C)=O)C(=O)N[C@@H](CO)C(=O)N[C@@H](CC(=O)O)C(=O)N[C@H]1CSSC[C@@H](C(=O)N2CCC[C@H]2C(=O)N[C@@H](Cc2ccccc2)C(=O)N[C@H](C)C(N)=O)NC(=O)[C@H](CC(N)=O)NC(=O)[C@H](Cc2c[nH]c3ccccc23)NC(=O)[C@H](CCC(N)=O)NC(=O)[C@H](CC(C)C)NC(=O)[C@H](Cc2c[nH]c3ccccc23)NC1=O` [compound 18, Ac-M-S-D-C(3)-W-L-Q-W-N-C(3)-P-F-(D-Ala)-CONH2] (Ac-MSDCWLQWNCPF[dA]-NH2; disulfide 4-10): > 100 nM.

As to `CSCC[C@H](NC(C)=O)C(=O)N[C@@H](C)C(=O)N[C@@H](CC(=O)O)C(=O)N[C@H]1CSSC[C@@H](C(=O)N2CCC[C@H]2C(=O)N[C@@H](Cc2ccccc2)C(=O)N[C@@H](CC(=O)O)C(N)=O)NC(=O)[C@H](CC(N)=O)NC(=O)[C@H](Cc2c[nH]c3ccccc23)NC(=O)[C@H](CCC(N)=O)NC(=O)[C@H](CC(C)C)NC(=O)[C@H](Cc2c[nH]c3ccccc23)NC1=O` [compound 20, Ac-M-(L-Ala)-D-C(3)-W-L-Q-W-N-C(3)-P-F-D-CONH2] (Ac-MADCWLQWNCPFD-NH2; disulfide 4-10), the Kd is > 100 nM. Turning to `CSCC[C@H](NC(C)=O)C(=O)N[C@@H](CO)C(=O)N[C@@H](CC(=O)O)C(=O)N[C@H]1CSSC[C@@H](C(=O)N2CCC[C@H]2C(=O)N[C@@H](Cc2ccccc2)C(=O)N[C@@H](CC(=O)O)C(N)=O)NC(=O)[C@H](CC(N)=O)NC(=O)[C@H](Cc2c[nH]c3ccccc23)NC(=O)[C@H](CCC(N)=O)NC(=O)[C@H](CC(C)C)NC(=O)[C@H](C)NC1=O` [compound 22, Ac-M-S-D-C(3)-(L-Ala)-L-Q-W-N-C(3)-P-F-D-CONH2] (Ac-MSDCALQWNCPFD-NH2; disulfide 4-10), the Kd was > 100 nM.

Usually Kd stands for the constant that tells how readily two partners part at equilibrium. A higher Kd goes with a looser complex.
